From article PMC9928118, “Funneling modulatory peptide design with generative models: Discovery and characterization of disruptors of calcineurin protein-protein interactions” (PLOS Computational Biology, 2023) come the findings set out here.

Experiment [1] deals with GST-tagged Cn. In words: PEPperPRINT peptide microarray binding assay with GST-tagged Cn. A digest of the protocol:
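Qualitative binding: peptides printed on a PEPperPRINT microarray were incubated overnight at 4 °C with 1 mg/ml GST-tagged Cn, then detected with Alexa-Fluor 647 anti-GST antibody. Log fluorescence was baseline-corrected, averaged over duplicate spots, Z-normalized and averaged across five repeats.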

The subject of experiment [2] is GST-tagged Cn. Described as above. Particulars: max over the duplicate spots (Location on chip).
Where [3] appears, read: GST-tagged Cn, mean over the duplicate spots (Location on chip).
The mark [4] stands for this setting: GST-tagged Cn, max over the spots named in Location on chip.
Setting [5] is: GST-tagged Cn, mean over the spots named in Location on chip.
The mark [6] stands for this setting: max over the chip locations listed for the peptide (two spots).
Where [7] appears, read: mean over the chip locations listed for the peptide (two spots).
[8] abbreviates: GST-tagged Cn, max over the chip spots listed under Location on chip.
Setting [9] is: GST-tagged Cn, mean over the chip spots listed under Location on chip.
The mark [10] stands for this setting: GST-tagged Cn, max over the chip locations.
Where [11] appears, read: GST-tagged Cn, mean over the chip locations.

As for HDLQCVINLHENACKT [Seqrandom_9996], in the experiment with GST-tagged Cn [1] (setting [3]), the “Chip Fluorescence (mean)” value is listed as -0.1329. Also, the “Chip Fluorescence (max)” value in the experiment with GST-tagged Cn [2] is 2.151.
On to LMDLCPVVRLQIISAL [SeqRBM_7616], for which the “Chip Fluorescence (mean)” value in the experiment with GST-tagged Cn [1] (setting [3]) worked out at 0.2546. The “Chip Fluorescence (max)” value with GST-tagged Cn [2] was 2.223.
For GAYMCPFMSWQDCGQR [SeqRBMlowT_4796], the “Chip Fluorescence (mean)” value in the experiment on GST-tagged Cn [1] (setting [3]) stood at 0.4498. Further, the “Chip Fluorescence (max)” value in the experiment on GST-tagged Cn [2] turned out to be 2.042.
The corresponding values for TFWTNPQFKFRLEDPD [SeqRBMlowT_7471] are 0.6593 and 2.466.
The matching figures for TFWTNPQITVTLAEDD [SeqRBMlowT_3250]: 1.296 and 2.572.
The corresponding values for SDVAQQCLPSQHWSCW [Seqrandom_9997] are 0.2486 and 2.401.
With ESRYRRFRQFQAPKVD [Seqshuffled_9523], in the experiment on GST-tagged Cn [1] (setting [3]), the “Chip Fluorescence (mean)” value is on record as 1.1019. For the same sequence, the “Chip Fluorescence (max)” value in the experiment with GST-tagged Cn [2] stood at 2.434.
With NNLAINDVTAGDRGCY [SeqRBM_1373], in the experiment with GST-tagged Cn [1] (setting [3]), the “Chip Fluorescence (mean)” value is listed as 1.818. Besides, the “Chip Fluorescence (max)” value with GST-tagged Cn [2] worked out at 2.1787.
The corresponding values for PTNGIPEMQRNSAKSA [Seqshuffled_9538] are 0.992 and 2.2337.
The corresponding values for FQTDAPTIPIDQAPIC [SeqRBM_9788] are 0.3576 and 1.993.
The corresponding values for “RMYINPFVQFIDGGNR [SeqSFB3_Mycena_chlorophos]” are -0.09268 and 2.0812.
In the case of AEVGIVRFSRHPVAQD [Seqshuffled_9961], the “Chip Fluorescence (mean)” value in the experiment on GST-tagged Cn [1] (setting [3]) is reported as 0.06577. For the same sequence, the “Chip Fluorescence (max)” value with GST-tagged Cn [2] turned out to be 2.2.
The matching figures for STPLPQGAPISPNTLA [Seqshuffled_9522]: -0.4537 and 2.383.
The matching figures for RNPESPVLELEGHSSP [SeqRBMlowT_6390]: 1.113 and 2.243.
The matching figures for SSLYENALGIESFTLS [SeqRBMlowT_2888]: 0.9732 and 2.496.
With HVSSSPDVTLKPPQHR [SeqRBMlowT_2147], in the experiment with GST-tagged Cn [1] (setting [3]), the “Chip Fluorescence (mean)” value is on record as 0.4725. The “Chip Fluorescence (max)” value in the experiment on GST-tagged Cn [2] stood at 2.217.
On to RAYDNPVFSFTFDSKG [SeqRBM_7566], for which the “Chip Fluorescence (mean)” value in the experiment on GST-tagged Cn [1] (setting [3]) was determined as 0.4256. Also, the “Chip Fluorescence (max)” value in the experiment with GST-tagged Cn [2] is 2.445.
As for ADETQPGIVVHVCELP [SeqRBMlowT_352], the “Chip Fluorescence (mean)” value in the experiment with GST-tagged Cn [1] (setting [3]) came out at 0.6468. Moreover, the “Chip Fluorescence (max)” value with GST-tagged Cn [2] amounted to 2.166.
The corresponding values for VEALSSRYGMATNLTG [Seqshuffled_4257] are 0.2313 and 2.043.
The corresponding values for “STASLPSFNFSFLTSS [SeqNUP153_Antrostomus_carolinensis]” are -0.1064 and 2.477.
The matching figures for TFWSNPQFKITLEEPD [SeqRBMlowT_5528]: 0.877 and 2.1472.
With KAYMNPFMQFIDGGRK [SeqRBMlowT_6686], the “Chip Fluorescence (mean)” value with GST-tagged Cn [1] (setting [3]) is on record as 0.8271. Further, the “Chip Fluorescence (max)” value in the experiment on GST-tagged Cn [2] is 2.02.
With PNKICGQRSFDGEHQN [Seqshuffled_9648], the “Chip Fluorescence (mean)” value in the experiment on GST-tagged Cn [1] (setting [3]) is on record as -0.254. Further, the “Chip Fluorescence (max)” value with GST-tagged Cn [2] is on record as 2.3848.
The corresponding values for KELANLRVTPPDNGTL [SeqRBM_2710] are 0.2344 and 2.355.
The matching figures for TFWTNPQYKITLEDED [SeqRBMlowT_7336]: 1.363 and 2.0782.
The matching figures for DCIGFCSVPVMYAPNH [Seqrandom_1239]: -0.3019 and 2.175.
Consider “RNPGSPVLVLEGHSAA [SeqYPL247C_Zygosaccharomyces_parabailii]”, for which, in the experiment on GST-tagged Cn [1] (setting [3]), the “Chip Fluorescence (mean)” value is -0.2767. Further, the “Chip Fluorescence (max)” value in the experiment with GST-tagged Cn [2] is given as 2.128.
The matching figures for RTYINPFMQFNRGGRK [SeqRBM_3856]: 0.8441 and 2.196.
The matching figures for PSLYINALGIESFTLS [SeqRBMlowT_6967]: 0.7051 and 2.037.
The corresponding values for KKMSPPCITITPAPGA [SeqRBMlowT_7625] are -0.7518 and 2.125.
On to LRDEVPEVRLNIISDL [SeqRBM_180], for which the “Chip Fluorescence (mean)” value in the experiment with GST-tagged Cn [1] (setting [3]) was -0.2367. The “Chip Fluorescence (max)” value in the experiment with GST-tagged Cn [2] turned out to be 2.2011.
Turning to FTMKFAWALPQCYVHC [Seqrandom_9941], in the experiment with GST-tagged Cn [1] (setting [3]), the “Chip Fluorescence (mean)” value came to 0.4694. Moreover, the “Chip Fluorescence (max)” value with GST-tagged Cn [2] amounted to 2.049.
The matching figures for LNDEIPEVRLNIISAL [SeqRBMlowT_4170]: -0.4845 and 2.3229.
The corresponding values for EPYVAFFYQFSHDPKS [Seqshuffled_9939] are -0.878 and 2.266.
The matching figures for ADEATPSIVVHVCELP [SeqRBMlowT_118]: 0.5506 and 2.544.
With RSKFIPKLSLQSPVHH [SeqRBMlowT_1791], the “Chip Fluorescence (mean)” value in the experiment on GST-tagged Cn [1] (setting [3]) is 0.1659. For the same sequence, the “Chip Fluorescence (max)” value with GST-tagged Cn [2] was 2.2877.
YTQIFPKCAMTIIKRK [Seqrandom_9966]: the “Chip Fluorescence (mean)” value in the experiment with GST-tagged Cn [1] (setting [3]) is 0.5369. In addition, the “Chip Fluorescence (max)” value in the experiment on GST-tagged Cn [2] is recorded as 2.341.
The matching figures for KKMAPPAINIDPAPTN [SeqRBMlowT_321]: -0.1981 and 2.529.
The corresponding values for RAYINPFMQFTFDSNK [SeqRBMlowT_4738] are 0.6521 and 2.119.
The matching figures for PGQMQPSINVMAEKNP [SeqRBM_977]: -0.5544 and 1.973.
Take WPWCRHPKKRNWLNWH [Seqrandom_9939]: the “Chip Fluorescence (mean)” value in the experiment with GST-tagged Cn [1] (setting [3]) is on record as 1.3152. For the same sequence, in the experiment on GST-tagged Cn [2], the “Chip Fluorescence (max)” value is given as 2.4643.
The matching figures for KSKRIPKLSVVSPVHH [SeqRBM_6422]: 0.728 and 2.115.
The corresponding values for GFETTPSIVVHVCEED [SeqRBMlowT_1939] are 0.4497 and 2.448.
SFWTNPQFIITLQEED [SeqRBMlowT_7307]: the “Chip Fluorescence (mean)” value with GST-tagged Cn [1] (setting [3]) worked out at 0.8738. In the experiment with GST-tagged Cn [2], the “Chip Fluorescence (max)” value is on record as 2.363.
The corresponding values for KNARGPLIIIHPMEED [SeqRBM_1913] are 1.192 and 2.283.
With PSHSIPKHSWESAVEH [SeqRBM_3394], the “Chip Fluorescence (mean)” value with GST-tagged Cn [1] (setting [3]) is -0.5716. In the experiment on GST-tagged Cn [2], the “Chip Fluorescence (max)” value was found to be 2.053.
The matching figures for RNPESPVLELEGHSAS [SeqRBMlowT_6180]: 0.5231 and 1.97.
On to LKDEIPEVRLNIISSL [SeqRBMlowT_1013], for which the “Chip Fluorescence (max)” value in the experiment with GST-tagged Cn [1] (setting [4]) is on record as 1.476. Further, in the experiment on GST-tagged Cn [1] (setting [5]), the “Chip Fluorescence (mean)” value is on record as 0.5558.
With ADEAGVQIVITVTELP [SeqRBMlowT_1446], the “Chip Fluorescence (max)” value in the experiment with GST-tagged Cn [1] (setting [6]) turned out to be 3.577. Also, the “Chip Fluorescence (mean)” value with GST-tagged Cn [1] (setting [7]) is given as 1.112.
“VEEAFPQIIISAEELP [SeqTRESK_Tarsius_syrichta]”: in the experiment with GST-tagged Cn [1] (setting [4]), the “Chip Fluorescence (max)” value stood at 1.401. Also, the “Chip Fluorescence (mean)” value in the experiment on GST-tagged Cn [1] (setting [5]) is given as -0.4076.
The matching figures for NNSESPKIAITTTLGN [SeqRBM_1677]: 1.504 and -0.4285.
Regarding TFWTNPQFKLKLLDPD [SeqRBMlowT_4269], the “Chip Fluorescence (max)” value in the experiment with GST-tagged Cn [1] (max over the spots listed under Location on chip) worked out at 3.1491. The “Chip Fluorescence (mean)” value with GST-tagged Cn [1] (mean over the spots listed under Location on chip) is 0.8579.
On to LNAIQEAQDKTDIRNK [Seqshuffled_9749], for which the “Chip Fluorescence (max)” value in the experiment with GST-tagged Cn [1] (setting [8]) is 0.5862. The “Chip Fluorescence (mean)” value in the experiment on GST-tagged Cn [1] (setting [9]) was -1.046.
As for TFNTNPQYTIQVVWPD [SeqRBM_7110], the “Chip Fluorescence (max)” value with GST-tagged Cn [1] (setting [10]) is recorded as -0.1833. Moreover, the “Chip Fluorescence (mean)” value with GST-tagged Cn [1] (setting [11]) was -1.179.
Take SSMAPPAINIDFAPTN [SeqRBMlowT_1806]: in the experiment on GST-tagged Cn [1] (setting [4]), the “Chip Fluorescence (max)” value is reported as 1.404. Further, the “Chip Fluorescence (mean)” value in the experiment on GST-tagged Cn [1] (setting [5]) was 0.3806.
For TFWSNPQFKITLEDPD [SeqRBMlowT_3183], the “Chip Fluorescence (max)” value in the experiment with GST-tagged Cn [1] (setting [10]) amounted to 0.1109. For the same sequence, in the experiment on GST-tagged Cn [1] (setting [11]), the “Chip Fluorescence (mean)” value was -0.8373.
Turning to TFWTNPQYRITVTEPD [SeqRBMlowT_7465], the “Chip Fluorescence (max)” value with GST-tagged Cn [1] (setting [8]) is recorded as 0.8889. In addition, the “Chip Fluorescence (mean)” value in the experiment with GST-tagged Cn [1] (setting [9]) was -0.4265.
Consider PDEAQPGIVVHVCELP [SeqRBMlowT_301], for which the “Chip Fluorescence (max)” value with GST-tagged Cn [1] (GST-tagged Cn, max over the spots on the chip (two locations)) was 1.28. For the same sequence, the “Chip Fluorescence (mean)” value in the experiment on GST-tagged Cn [1] (GST-tagged Cn, mean over the spots on the chip (two locations)) is 0.6681.
Turning to TFWTNPQFVVSLPEPD [SeqRBMlowT_3270], the “Chip Fluorescence (max)” value with GST-tagged Cn [1] (setting [8]) is 0.9379. Besides, the “Chip Fluorescence (mean)” value with GST-tagged Cn [1] (setting [9]) is -0.001001.
For the sequence TFWTNPQYVITLEEPD [SeqRBMlowT_2279], the “Chip Fluorescence (max)” value with GST-tagged Cn [1] (setting [4]) was found to be 1.482. In the experiment with GST-tagged Cn [1] (setting [5]), the “Chip Fluorescence (mean)” value came out at 0.5155.
The corresponding values for KKMAPPCINIDPAPTN [SeqRBMlowT_309] are 1.659 and -0.3088.
ATPGTFPRGDGAHKKQ [SeqRBMlowT_5886]: the “Chip Fluorescence (max)” value in the experiment with GST-tagged Cn [1] (setting [6]) was determined as 4.111. Besides, the “Chip Fluorescence (mean)” value with GST-tagged Cn [1] (setting [7]) was 0.8256.
For the sequence TFWTNPQFKITLEDPD [SeqRBMlowT_205], the “Chip Fluorescence (max)” value in the experiment on GST-tagged Cn [1] (setting [4]) is 1.84. Moreover, in the experiment with GST-tagged Cn [1] (setting [5]), the “Chip Fluorescence (mean)” value was -0.4239.
